Measured values as given in PMC10065799, “High-throughput profiling of sequence recognition by tyrosine kinases and SH2 domains using bacterial peptide display” (eLife, 2023).

What was measured:
c-Src kinase domain = c-Src kinase domain (Homo sapiens, UniProt P12931); experiment: pTyr-Var library bacterial peptide display kinase screen (enrichment scores); format: biochemical
Fyn kinase domain = experiment: as above; format: biochemical, human
Hck kinase domain = experiment: as above; format: biochemical, human
c-Abl kinase domain = target: T1, c-Abl kinase domain (Mus musculus, UniProt P00520); experiment: as above; format: biochemical
T1 sequence (P00520 242-493 limits assumed): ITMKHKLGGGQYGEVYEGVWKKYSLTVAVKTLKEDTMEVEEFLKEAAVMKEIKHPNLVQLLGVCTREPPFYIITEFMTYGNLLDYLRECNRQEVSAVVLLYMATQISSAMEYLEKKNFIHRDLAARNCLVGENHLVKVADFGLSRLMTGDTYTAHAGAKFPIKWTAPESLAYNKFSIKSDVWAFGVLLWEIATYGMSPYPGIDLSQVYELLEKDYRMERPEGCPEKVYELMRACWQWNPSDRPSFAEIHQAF

Jak2 = experiment: as above; format: biochemical, human
AncSZ kinase domain = experiment: as above; format: biochemical
Fer kinase domain = experiment: as above; format: biochemical, mouse
Fes = experiment: as above; format: biochemical; settings: mean of log2 of enrichment over R1-R6
FGFR1 kinase domain = experiment: as above; format: biochemical, human
FGFR3 kinase domain = experiment: as above; format: biochemical, human
EPHB1 kinase domain = experiment: as above; format: biochemical, human
EPHB2 kinase domain = experiment: as above; format: biochemical, human
MERTK kinase domain = experiment: as above; format: biochemical, human
[1] = system: 4G10 Platinum pan-phosphotyrosine antibody; experiment: Phosphorylated pTyr-Var library selection with biotinylated pan-phosphotyrosine antibody; format: binding, mouse; settings: enrichment score, sheet SH2-vs-peptide
Protocol: After the desired time of library phosphorylation, kinase activity was quenched with 25 mM EDTA and the cells were washed with PBS containing 0.2% BSA. Kinase-treated cells were then labeled with a 1:1000 dilution of biotinylated 4G10 Platinum anti-phosphotyrosine antibody (Millipore) for an hour on ice and washed with PBS containing 0.1% BSA and 2 mM EDTA (isolation buffer). The cells were finally resuspended in PBS containing 0.1% BSA. The phosphorylated, antibody-labeled cells were then mixed with magnetic beads from Dynabeads FlowComp Flexi kit (Invitrogen), at a ratio of 37.5 μL of washed beads per 50 μL of cell suspension, diluted into 450 μL of isolation buffer. The suspension was rotated at 4 °C for 30 minutes, then 375 μL of isolation buffer was added and the beads were separated from the bulk solution on a magnetic rack. The beads were washed once with 1 mL of isolation buffer, and then the supertantant were removed by aspiration. […] The bead/lysate mixture was centrifuged to pellet the beads and the mixture was stored at -20 °C.

c-Src SH2 domain = c-Src SH2 domain (Homo sapiens, UniProt P12931); experiment: pTyr-Var library SH2 domain screen with SH2-dynabeads (enrichment scores); settings: sheet c-Src
SHP2 C-SH2 domain = experiment: as above
Grb2 SH2 domain = experiment: as above
[2] = mean of log2 of enrichment over R1-R4
[3] = pTyr-Var library, enrichment score, replicate 1
[4] = pTyr-Var library, enrichment score, replicate 3
[5] = pTyr-Var library, enrichment score, replicate 4
[6] = mean of log2 enrichment of reference peptide, n = 5
[7] = pTyr-Var library, reference peptide enrichment, mean of n = 5
[8] = mean of log2 enrichment of reference peptide, n = 4
[9] = pTyr-Var library, reference peptide enrichment, mean of n = 4

Sequence: DRVALYIAREG [AACS_Y117]
- c-Src mean of log2(enrichment) (c-Src kinase domain; [2]): -1.224
- c-Src enrich. R1 (c-Src kinase domain; [3]): 0.458
- c-Src enrich. R3 (c-Src kinase domain; [4]): 0.3437
- c-Src enrich. R4 (c-Src kinase domain; [5]): 0.4348
- Fyn mean of log2(enrichment) (Fyn kinase domain; [2]): -1.315
- Fyn enrich. R1 (Fyn kinase domain; [3]): 0.792
- Fyn enrich. R3 (Fyn kinase domain; [4]): 0.3214
- Fyn enrich. R4 (Fyn kinase domain; [5]): 0.1749
- Hck mean of log2(enrichment) (Hck kinase domain; mean of log2(variant) / mean of log2(reference), R1-R4): 0.5689
- Hck enrich. R1 (Hck kinase domain; [3]): 0.9245
- Hck enrich. R3 (Hck kinase domain; [4]): 0.4813
- Hck enrich. R4 (Hck kinase domain; [5]): 0.2133
- c-Abl mean of log2(enrichment) (c-Abl kinase domain; [2]): -0.4566
- c-Abl enrich. R1 (c-Abl kinase domain; [3]): 0.7622
- c-Abl enrich. R3 (c-Abl kinase domain; [4]): 0.701
- c-Abl enrich. R4 (c-Abl kinase domain; [5]): 0.6553
- Jak2 mean of log2(enrichment) (Jak2; mean of log2 of enrichment over R1-R3): 0.02155
- Jak2 enrich. R1 (Jak2; [3]): 0.9714
- Jak2 enrich. R3 (Jak2; [4]): 1.09
- AncSZ mean of log2(enrichment) (AncSZ kinase domain; mean of log2 of enrichment over R1-R5): -0.07806
- AncSZ enrich. R1 (AncSZ kinase domain; [3]): 1.096
- AncSZ enrich. R3 (AncSZ kinase domain; [4]): 1.043
- AncSZ enrich. R4 (AncSZ kinase domain; [5]): 0.9321
- AncSZ enrich. R5 (AncSZ kinase domain; pTyr-Var library, enrichment score, replicate 5): 0.7233
- Fer mean of log2(enrichment) (Fer kinase domain; [2]): -1.082
- Fer enrich. R1 (Fer kinase domain; [3]): 0.5665
- Fer enrich. R3 (Fer kinase domain; [4]): 0.4786
- Fer enrich. R4 (Fer kinase domain; [5]): 0.5652
- Fes mean of log2(enrichment) (Fes): 0.1816
- mean of log2(reference) (FGFR1 kinase domain; [6]): -0.9619
- ref. mean (FGFR1 kinase domain; [7]): 0.5188
- mean of log2(reference) (FGFR3 kinase domain; [6]): -0.5381
- ref. mean (FGFR3 kinase domain; [7]): 0.7165
- mean of log2(reference) (EPHB1 kinase domain; [8]): -0.6213
- ref. mean (EPHB1 kinase domain; [9]): 0.6707
- mean of log2(reference) (EPHB2 kinase domain; [8]): -0.9971
- ref. mean (EPHB2 kinase domain; [9]): 0.5335
- mean of log2(reference) (MERTK kinase domain; [8]): -1.387
- ref. mean (MERTK kinase domain; [9]): 0.3952
- 4G10 (mean) [1]: 0.8696
- mean of log2(reference) (c-Src SH2 domain; mean of log2 enrichment of reference peptide, R1-R3): -1.13
- ref. mean (c-Src SH2 domain; reference peptide, mean of R1-R3): 0.4875
- mean of log2(reference) (SHP2 C-SH2 domain; SHP2-C SH2, mean of log2 enrichment of reference, R1-R3): -0.1513
- ref. mean (SHP2 C-SH2 domain; reference peptide enrichment score, SHP2-C SH2, mean of R1-R3): 0.928
- mean of log2(reference) (Grb2 SH2 domain; Grb2 SH2, mean of log2 enrichment of reference, R1-R3): -0.1768
- ref. mean (Grb2 SH2 domain; reference peptide enrichment score, Grb2 SH2, mean of R1-R3): 0.8958
